US6420131B1, “Use of fluorescein aryl ethers in high throughput cytochrome P450 inhibition assays” (Gentest Corporation, priority 1999, dated 2002)

What was measured:
Rat CYP2B1 = target: T1, Rat CYP2B1 (Rattus norvegicus, UniProt P00176); experiment: Turnover of fluorometric substrates by rat CYP2B1; settings: substrate uM: Ia 2, AMMC 20, CEC 40, MFC 50, BFC 50, BQ 40, BzRes 50; 30 min; enzyme 50 nM
T1 sequence (P00176 1-491): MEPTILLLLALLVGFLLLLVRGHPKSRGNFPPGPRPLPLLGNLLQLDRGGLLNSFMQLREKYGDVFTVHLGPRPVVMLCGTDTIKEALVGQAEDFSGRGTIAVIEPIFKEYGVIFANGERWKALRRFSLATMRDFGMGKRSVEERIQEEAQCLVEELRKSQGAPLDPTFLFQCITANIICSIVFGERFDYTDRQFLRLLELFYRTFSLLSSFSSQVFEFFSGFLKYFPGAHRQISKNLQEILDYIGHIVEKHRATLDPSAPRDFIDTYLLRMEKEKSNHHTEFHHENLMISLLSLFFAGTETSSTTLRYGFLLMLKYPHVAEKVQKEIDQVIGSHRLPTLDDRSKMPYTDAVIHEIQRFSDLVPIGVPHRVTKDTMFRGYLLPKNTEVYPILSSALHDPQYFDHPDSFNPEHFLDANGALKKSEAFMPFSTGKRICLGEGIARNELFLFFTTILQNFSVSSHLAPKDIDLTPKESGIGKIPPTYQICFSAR

Rat CYP2C6 = target: T2, Rat CYP2C6 (Rattus norvegicus, UniProt P05178); experiment: Turnover of fluorometric substrates by rat CYP2C6; settings: substrate uM: Ia 2, AMMC 20, CEC 40, MFC 50, BFC 50, BQ 40, BzRes 50; 30 min; enzyme 50 nM
T2 sequence (P05178 1-490): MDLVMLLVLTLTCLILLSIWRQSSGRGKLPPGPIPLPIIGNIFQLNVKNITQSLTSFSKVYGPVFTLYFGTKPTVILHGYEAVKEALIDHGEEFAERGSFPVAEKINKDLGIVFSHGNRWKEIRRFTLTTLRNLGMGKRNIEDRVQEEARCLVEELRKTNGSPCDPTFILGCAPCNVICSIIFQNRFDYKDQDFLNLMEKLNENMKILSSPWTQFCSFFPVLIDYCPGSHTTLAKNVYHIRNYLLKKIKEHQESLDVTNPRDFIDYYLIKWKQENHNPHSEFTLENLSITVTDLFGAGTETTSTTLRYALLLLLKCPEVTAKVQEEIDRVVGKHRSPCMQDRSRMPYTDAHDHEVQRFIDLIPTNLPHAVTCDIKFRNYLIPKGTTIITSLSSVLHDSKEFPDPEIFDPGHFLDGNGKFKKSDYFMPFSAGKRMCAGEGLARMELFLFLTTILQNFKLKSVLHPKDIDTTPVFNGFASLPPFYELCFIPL

Rat CYP2D2 = target: T3, Rat CYP2D2 (Rattus norvegicus, UniProt P10634); experiment: Turnover of fluorometric substrates by rat CYP2D2; settings: substrate uM: Ia 2, AMMC 20, CEC 40, MFC 50, BFC 50, BQ 40, BzRes 50; 30 min; enzyme 50 nM
T3 sequence (P10634 1-500): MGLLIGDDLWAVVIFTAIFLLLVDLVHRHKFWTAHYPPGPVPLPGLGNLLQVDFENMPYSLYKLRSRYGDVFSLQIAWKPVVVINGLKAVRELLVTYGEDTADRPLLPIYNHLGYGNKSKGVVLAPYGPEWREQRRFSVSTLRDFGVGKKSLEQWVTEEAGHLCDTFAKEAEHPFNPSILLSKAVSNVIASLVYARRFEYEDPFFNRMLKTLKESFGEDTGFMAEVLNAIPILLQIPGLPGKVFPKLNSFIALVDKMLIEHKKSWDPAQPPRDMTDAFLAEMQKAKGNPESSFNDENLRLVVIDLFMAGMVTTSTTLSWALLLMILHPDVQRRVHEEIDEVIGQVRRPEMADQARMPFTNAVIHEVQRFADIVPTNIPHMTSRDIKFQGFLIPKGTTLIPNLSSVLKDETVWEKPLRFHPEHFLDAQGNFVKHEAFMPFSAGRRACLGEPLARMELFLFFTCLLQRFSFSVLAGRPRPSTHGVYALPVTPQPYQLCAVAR

Rat CYP1A1 = target: T4, Rat CYP1A1 (Rattus norvegicus, UniProt P00185); experiment: Turnover of fluorometric substrates by rat CYP1A1; settings: substrate uM: Ia 2, AMMC 20, CEC 40, MFC 50, BFC 50, BQ 40, BzRes 50; 30 min; enzyme 50 nM (2.5 nM for CEC)
T4 sequence (P00185 1-524): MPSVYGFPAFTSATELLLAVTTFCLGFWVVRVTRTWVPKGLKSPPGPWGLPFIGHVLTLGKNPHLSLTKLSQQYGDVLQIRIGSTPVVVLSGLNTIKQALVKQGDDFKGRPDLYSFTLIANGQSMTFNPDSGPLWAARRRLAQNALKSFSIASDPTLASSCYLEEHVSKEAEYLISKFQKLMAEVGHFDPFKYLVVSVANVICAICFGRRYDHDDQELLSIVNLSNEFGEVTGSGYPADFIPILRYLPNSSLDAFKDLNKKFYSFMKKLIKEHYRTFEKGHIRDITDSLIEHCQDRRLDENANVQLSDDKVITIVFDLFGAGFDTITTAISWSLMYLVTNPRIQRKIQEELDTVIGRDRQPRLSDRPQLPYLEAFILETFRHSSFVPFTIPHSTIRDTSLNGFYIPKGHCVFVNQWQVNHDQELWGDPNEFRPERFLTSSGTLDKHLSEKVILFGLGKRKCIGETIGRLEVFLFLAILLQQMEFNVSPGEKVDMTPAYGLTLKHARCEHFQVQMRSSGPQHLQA

Rat CYP1A2 = target: T5, Rat CYP1A2 (Rattus norvegicus, UniProt P04799); experiment: Turnover of fluorometric substrates by rat CYP1A2; settings: substrate uM: Ia 2, AMMC 20, CEC 40, MFC 50, BFC 50, BQ 40, BzRes 50; 30 min; enzyme 50 nM
T5 sequence (P04799 1-513): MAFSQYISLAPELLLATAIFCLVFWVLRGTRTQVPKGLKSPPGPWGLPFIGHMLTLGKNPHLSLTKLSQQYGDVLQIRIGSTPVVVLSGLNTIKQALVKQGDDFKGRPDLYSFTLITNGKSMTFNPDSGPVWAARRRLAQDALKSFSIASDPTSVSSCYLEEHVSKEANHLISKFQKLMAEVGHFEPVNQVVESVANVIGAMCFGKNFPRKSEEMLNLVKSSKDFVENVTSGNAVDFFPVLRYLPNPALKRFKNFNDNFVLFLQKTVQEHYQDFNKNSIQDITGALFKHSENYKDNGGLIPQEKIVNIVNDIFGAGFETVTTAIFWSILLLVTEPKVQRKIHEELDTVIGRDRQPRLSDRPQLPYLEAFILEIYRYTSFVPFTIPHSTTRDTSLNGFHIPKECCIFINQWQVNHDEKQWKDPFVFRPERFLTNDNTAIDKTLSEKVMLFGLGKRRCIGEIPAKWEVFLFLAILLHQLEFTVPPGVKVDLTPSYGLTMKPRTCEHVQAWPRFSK

Row | Turnover Numbers, CYP2B1 (Rat CYP2B1) | Turnover Numbers, CYP2C6 (Rat CYP2C6) | Turnover Numbers, CYP2D2 (Rat CYP2D2) | Turnover Numbers, CYP1A1 (Rat CYP1A1) | Turnover Numbers, CYP1A2 (Rat CYP1A2) | Compound
1 | 3.70 pmol product/min/pmol enzyme | 2.62 pmol product/min/pmol enzyme | 0.12 pmol product/min/pmol enzyme | 0.34 pmol product/min/pmol enzyme |  | O=c1cc(C(F)(F)F)c2ccc(OCc3ccccc3)cc2o1 [BFC, 7-Benzyloxy-4-trifluoromethylcoumarin]
2 | 2.5 pmol product/min/pmol enzyme | 1.9 pmol product/min/pmol enzyme | 4.4 pmol product/min/pmol enzyme | 5.7 pmol product/min/pmol enzyme | 2.3 pmol product/min/pmol enzyme | c1ccc(COc2ccc3cccnc3c2)cc1 [BQ, 7-Benzyloxyquinoline]
3 |  | 0.021 pmol product/min/pmol enzyme | 0.194 pmol product/min/pmol enzyme | 0.211 pmol product/min/pmol enzyme | 0.041 pmol product/min/pmol enzyme | O=C(OCc1ccccc1)c1ccccc1-c1c2ccc(=O)cc-2oc2cc(OCc3ccccc3)ccc12 [Compound Ia, O-Benzylfluorescein Benzyl Ester]
4 | 2.82 pmol product/min/pmol enzyme | 11.5 pmol product/min/pmol enzyme | 0.08 pmol product/min/pmol enzyme | 1.03 pmol product/min/pmol enzyme | 1.32 pmol product/min/pmol enzyme | COc1ccc2c(C(F)(F)F)cc(=O)oc2c1 [MFC, 7-Methoxy-4-trifluoromethylcoumarin]

Row | Compound | Turnover Numbers, CYP2B1 (Rat CYP2B1) | Turnover Numbers, CYP2C6 (Rat CYP2C6) | Turnover Numbers, CYP2D2 (Rat CYP2D2) | Turnover Numbers, CYP1A1 (Rat CYP1A1) | Turnover Numbers, CYP1A2 (Rat CYP1A2)
5 | O=c1ccc2nc3ccc(OCc4ccccc4)cc3oc-2c1 [BzRes, 7-benzyloxyresorufin] | 0.82 pmol product/min/pmol enzyme | 0.02 pmol product/min/pmol enzyme |  | 1.35 pmol product/min/pmol enzyme | 0.62 pmol product/min/pmol enzyme
6 | CCOc1ccc2cc(C#N)c(=O)oc2c1 [CEC, 7-Ethoxy-3-cyanocoumarin] | 0.45 pmol product/min/pmol enzyme | 2.14 pmol product/min/pmol enzyme |  | 78 pmol product/min/pmol enzyme | 1.38 pmol product/min/pmol enzyme
